Data as given in paper PMC10218234, “Design, Synthesis and Antitumor Activity of 1H-indazole-3-amine Derivatives” (International Journal of Molecular Sciences, 2023).
Entries after “also recorded” stand apart in the source; their conditions may differ. Where two headings read alike, the source gives them in different places.

Key:
A549 cells = test: MTT anti-proliferative assay, A549; assay type: cell-based; conditions: Homo sapiens, read-out: IC50 ± SD, A549
Procedure: (§1) The antiproliferative activity of the target indazole derivatives was evaluated against a panel of human cancer cell lines (human chronic myeloid leukemia cell lines K562; human lung cancer cell lines A549; human prostate cancer cell lines PC-3; human hepatoma cell lines HepG-2) in vitro, and human embryonic kidney cell lines HEK-293 were used to evaluate the cytotoxicity of a normal cell with high activity derivatives by MTT assay. Moreover, 5-fluorouracil (5-Fu), a broad-spectrum drug antitumor drug with therapeutic effects on various cancers, was used as a positive control.
(§2) Lung (A549), chronic myeloid leukemia (K562), prostate (PC3), and live (Hep-G2) cells were purchased from the Cell Bank of the Chinese Academy of Sciences (Kunming, China). A549, K562, and PC-3 cells were cultured in RPMI-1640 medium and the liver cells Hep-G2 were cultured in MEM medium. All mediums were supplemented with 10% FBS, 100 μg/mL penicillin and 100 μg/mL streptomycin. All cells were cultivated in a 5% CO2 incubator at 37 °C.
(§3) To investigate the anticancer activity of indazole derivatives, A549, K562, PC3, and Hep-G2 cells were treated with targets compounds respectively for 48 h in a range of concentrations (from 0.625 to 10 μM) and subjected to a proliferation assay using the MTT assay. Exponentially growing cells were seeded at a density of 5000 cells per well in 96-well plates containing 100 μL of fresh growth medium. After allowing the cells to attach for 24 h, target compounds were added. After incubation for 48 h, viable cells were stained with MTT (0.5 mg/mL) for 4 h, and the produced formazan crystals were dissolved with 150 µL of dimethyl sulfoxide. Absorbance was measured at 490 nm using an automated microplate reader (Tecan, Infinite M200 Pro, Männedorf, Switzerland). The relative cell viability was calculated according to the following equation: Cell viability%=experimental OD value/control OD value×100%Cell inhibition%=control OD value−experimental OD value/control OD value×100%
(§4) Cell inhibition%=control OD value−experimental OD value/control OD value×100%

K562 cells [1] = test: MTT anti-proliferative assay, K562; assay type: cell-based; conditions: Homo sapiens
Procedure: as §1, §2, §3, §4

[2] = MTT cytotoxicity to normal cells, HEK-293; assay type: cell-based, human; conditions: human, HEK-293 cells (normal human embryonic kidney cells); normal cell HEK-293; MTT; read-out: IC50 ± SD, HEK-293
Procedure: as §1, §3, §4

HEK-293 cells = test: MTT cytotoxicity to normal cells, HEK-293; assay type: cell-based, human; conditions: for Selectivity index (SI) for Hep-G2 cells: IC50 in HEK-293 divided by IC50 in Hep-G2; for Selectivity index (SI) for K562 cells: IC50 in HEK-293 divided by IC50 in K562
Procedure: as §1, §3, §4

K562 cells [3] = test: Cell cycle analysis (PI staining, flow cytometry); assay type: cell-based, human; conditions: 24 h
Procedure: To further explore the antitumor properties of 6o, the effect of 6o on cell cycle distribution was evaluated. PI staining was used to perform cell cycle analysis.
To analyze the cell cycle, a PI apoptosis detection kit (Solarbio, Wuhan, China) was utilized. After K562 cells were seeded in 6-well plates for 24 h, compound 6o (10, 12 and 14 μM) or positive control was added to the plates for another 24 h. Then, cells were washed three times with PBS, and fixed with 70% ethanol at 4°C for overnight. After fixed, cells were again washed with PBS and incubated at 37 °C with 100 μL RNase A for 30 min. After this, cells were incubated with 400 μL PI for 30 min at 4 °C. After staining, cells were subjected to Flow Cytometry using Cell Quest software (BD, SN: E34297502014) and the PI fluorescence was recorded in the FL2 channel. Data were analyzed using FlowJo V10.

Hep-G2 cells = test: MTT anti-proliferative assay, Hep-G2; assay type: cell-based; conditions: Homo sapiens
Procedure: as §1, §2, §3, §4

PC-3 cells = test: MTT anti-proliferative assay, PC-3; assay type: cell-based; conditions: Homo sapiens, PC-3, 48 h
Procedure: as §1, §2
as §3, with “Exponentially” for “To investigate the anticancer activity of indazole derivatives, A549, K562, PC3, and Hep-G2 cells were treated with targets compounds respectively for 48 h in a range of concentrations (from 0.625 to 10 μM) and subjected to a proliferation assay using the MTT assay. Exponentially”
as §4

K562 cells [4] = test: Annexin V-FITC/PI cell apoptosis detection assay (flow cytometry); assay type: cell-based, human; conditions: 48 h
Procedure: (§5) To quantify the effects of 6o on K562 cell apoptosis, K562 cells were treated with different concentrations of the compound 6o and followed by Annexin V-FITC/PI detection assay.
Activation of tumor cell apoptosis plays an important role in treatment cancer. To investigate whether apoptosis could underlie the anticancer activity of 6o, K562 cells were treated with 6o (0, 10, 12 or 14 μM) for 48 h and the percentage of apoptosis was determined by flow cytometry, Annexin V-FITC/PI Apoptosis Detection Kit (BD, Franklin Lakes, NJ, USA) was used. Cells (1 × 10^6/mL per well) were plated in 6-well culture plates and grown for 24 h. After treatment with compound 6o for 48 h, the collected cells were washed two times with ice-cold PBS, counted, and 100 μL of cell suspension with a density of 1 × 10^6 cells/mL was prepared, then incubated with 5 μL Annexin V-FITC and 5 μL Propidium iodide (PI) in the dark for 15 min. After 15 min of incubation and added 400 μL of 1 × binding buffer, and use Cell Quest software (BD, SN: E34297502014) to perform detection on Flow Cytometry (BD, Franklin Lakes, NJ, USA). Data were analyzed using FlowJo V10.

[5] = tested on: p53 and MDM2 expression in K562 cells; test: Western blotting of p53 and MDM2; assay type: cell-based, human; conditions: K562, 48 h
Procedure: Loss of p53 activity by deletion, mutation, or MDM2 over-expression, is the most common event in the development and progression of cancer. To confirm the ability of 6o to inhibit the p53 and MDM2 interaction in K562, the expression levels of these two proteins were evaluated by Western blotting assay after 48 h of 6o treatment. […] In summary, 6o could change the expression of p53 and MDM2, disrupting the balance of intracellular p53 protein levels, and eventually inducing apoptosis of K562.
(§6) K562 cells were treated with compound 6o for 48 h, then, lysed in 1×RIPA lysis buffer (Solarbio) with proteinase (Solarbio) and phosphatase inhibitors (Solarbio) for 15 min on ice (proteinase: phosphatase inhibitors: 1 × RIPA lysis buffer = 1:1:100), scraped off from the plate and prepared cell lysates. These lysates were centrifuged at 1.2 × 10^4 rpm at 4 °C for 15 min to collect the supernatants and the protein concentration of each sample was quantified by the BCA protein assay kit (Beyotime, Shanghai, China). Protein was separated by SDS-PAGE and then transferred onto the PVDF membrane. […]

[6] = tested on: Bax and Bcl-2 expression in K562 cells; test: Western blotting of apoptosis-related proteins Bax and Bcl-2; assay type: cell-based, human; conditions: K562, 48 h
Procedure: as §5
as §6, with “membrane. After blocking with 5% skim milk for 2 h, befitting primary antibodies include Bax (Proteintech; Type: Rabbit; Cat No.: 50599-2-lg); Bcl-2 (Proteintech; Type: Mouse; Cat No.: 60178-1-lg); GAPDH (Proteintech; Type: Mouse; Cat No.: 60004-1-lg); β-actin (Proteintech; Type: Rabbit; Cat No.: 81115-1-RR); P53 (Cell signaling; Type: Rabbit; Cat No.: #2527) and MDM2 (Cell signaling; Type: Rabbit; Cat No.: #86934) were sealed in Antibody Dilution Buffer, and cocultivated with the PDF membrane at 4 °C for overnight.” for “membrane.”

[7] = Table 1, 48 h, read-out: IC50 ± SD, K562
[8] = Table 3, read-out: IC50 ± SD, K562
[9] = HepG2, 48 h, Table 1, 48 h, read-out: IC50 ± SD, Hep-G2
[10] = HepG2, 48 h, Table 2, 48 h, read-out: IC50 ± SD, Hep-G2
[11] = HepG2, Table 3, read-out: IC50 ± SD, Hep-G2
[12] = Table 1, read-out: IC50 ± SD, PC-3
[13] = Table 2, read-out: IC50 ± SD, PC-3
[14] = Table 2, 48 h, read-out: IC50 ± SD, K562

IC50 (A549 cells; Table 1, 48 h) [µM] | IC50 (K562 cells [1]; [7]) [µM] | IC50 (K562 cells [1]; [8]) [µM] | IC50 (Hep-G2 cells; [9]) [µM] | IC50 (Hep-G2 cells; [10]) [µM] | IC50 (Hep-G2 cells; [11]) [µM] | IC50 (PC-3 cells; [12]) [µM] | IC50 (PC-3 cells; [13]) [µM] | IC50 (A549 cells; Table 2, 48 h) [µM] | IC50 (K562 cells [1]; [14]) [µM] | melting point [°C] | SMILES | IC50 at 48 h [2] [µM] | Selectivity index (SI) for Hep-G2 cells (HEK-293 cells) | Selectivity index (SI) for K562 cells (HEK-293 cells) | other results
8.37 ± 0.79 | 8.53 ± 2.27 | 8.53 ± 2.27 | 9.78 ± 1.58 | 2.25 ± 0.46 | 9.78 ± 1.58 | 9.17 ± 3.93 | 3.47 ± 0.21 | – | – | – | O=c1[nH]cc(F)c(=O)[nH]1 [5-Fu, 5-fluorouracil, reference compound] | 1.16 ± 0.11 | 0.12 | 0.14 | increase of the proportion of the G0/G1 phase after drug treatment (K562 cells [3]; K562, positive control): 10%
– | – | – | – | 20 ± 3.04 | – | – | 27.7 ± 16.9 | 17.6 ± 4.11 | > 50 | 195 to 197 | O=C(CN1CCN(c2ccncc2)CC1)Nc1n[nH]c2ccc(-c3ccc(Cl)c(Cl)c3)cc12 [6u] | – | – | – | –
7.78 ± 0.18 | 8.86 ± 0.66 | – | 3.32 ± 0.43 | – | 3.32 ± 0.43 | 12.6 ± 2.17 | – | – | – | 204 to 205 | O=C(CSc1ccc(Br)cc1)Nc1n[nH]c2ccc(-c3cc(F)cc(F)c3)cc12 [compound 5k] | 12.2 ± 2.85 | 3.67 | – | –
– | – | 5.15 ± 0.55 | – | 7.37 ± 0.24 | – | – | 8.34 ± 1.55 | 6.73 ± 1.03 | 5.15 ± 0.55 | 183 to 185 | O=C(CN1CCN(c2ccc(C(F)(F)F)cc2)CC1)Nc1n[nH]c2ccc(-c3ccc(Cl)c(F)c3)cc12 [compound 6o] | 33.2 ± 3.83 | – | 6.45 | G0/G1 population (K562 cells [3]; K562, 10 μM): 31.8%; G0/G1 population (K562 cells [3]; K562, 12 μM): 36.4%; G0/G1 population (K562 cells [3]; K562, 14 μM): 41.1%; proportion of S phase cells (K562 cells [3]; K562, 10, 12 and 14 μM, vs negative control): decreased significantly; total apoptosis rate (early and late apoptosis) (K562 cells [4]; K562, 10 μM): 9.64%; total apoptosis rate (early and late apoptosis) (K562 cells [4]; K562, 12 μM): 16.59%; total apoptosis rate (early and late apoptosis) (K562 cells [4]; K562, 14 μM): 37.72%; expression level of p53 protein [5]: up-regulate; expression of MDM2 protein [5]: reduce; expression of Bax (pro-apoptotic protein) [6]: increase; expression of Bcl-2 (apoptosis-inhibiting protein) [6]: decreased; also recorded: reduce
